Target: T1, complex I (NADH ubiquinone reductase) (Rattus norvegicus, UniProt A6K8N6+P03889+Q641Y2)
T1 construct: gene Ndufs2; native multi-subunit complex in mitochondria isolated from frozen rat liver; with NADH dehydrogenase [ubiquinone] flavoprotein 1, mitochondrial; NADH dehydrogenase [ubiquinone] flavoprotein 2, mitochondrial; NADH-ubiquinone oxidoreductase 75 kDa subunit, mitochondrial; NADH dehydrogenase [ubiquinone] iron-sulfur protein 3, mitochondrial; NADH dehydrogenase [ubiquinone] iron-sulfur protein 8, mitochondrial; NADH-ubiquinone oxidoreductase chain 2; NADH-ubiquinone oxidoreductase chain 3; NADH-ubiquinone oxidoreductase chain 4; NADH-ubiquinone oxidoreductase chain 4L; NADH-ubiquinone oxidoreductase chain 5; NADH-ubiquinone oxidoreductase chain 6
T1 sequence (Q641Y2 34-463): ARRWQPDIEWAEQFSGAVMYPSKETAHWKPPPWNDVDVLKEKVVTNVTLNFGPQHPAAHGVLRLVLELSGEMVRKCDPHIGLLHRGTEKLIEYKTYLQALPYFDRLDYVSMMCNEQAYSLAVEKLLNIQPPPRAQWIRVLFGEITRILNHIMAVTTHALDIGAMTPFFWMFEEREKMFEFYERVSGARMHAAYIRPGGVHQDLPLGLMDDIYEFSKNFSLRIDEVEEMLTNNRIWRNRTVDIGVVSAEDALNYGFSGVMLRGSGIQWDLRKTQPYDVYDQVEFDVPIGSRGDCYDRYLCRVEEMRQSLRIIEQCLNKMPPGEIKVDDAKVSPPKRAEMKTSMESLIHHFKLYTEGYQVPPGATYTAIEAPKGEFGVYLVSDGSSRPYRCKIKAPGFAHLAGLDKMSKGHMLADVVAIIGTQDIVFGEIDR
T1 sequence (A6K8N6 39-218): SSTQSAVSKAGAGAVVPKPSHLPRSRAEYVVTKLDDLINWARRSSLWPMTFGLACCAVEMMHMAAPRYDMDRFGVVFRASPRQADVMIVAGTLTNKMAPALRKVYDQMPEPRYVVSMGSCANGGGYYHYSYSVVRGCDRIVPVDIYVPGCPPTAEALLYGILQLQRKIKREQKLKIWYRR
T1 sequence (P03889 whole entry): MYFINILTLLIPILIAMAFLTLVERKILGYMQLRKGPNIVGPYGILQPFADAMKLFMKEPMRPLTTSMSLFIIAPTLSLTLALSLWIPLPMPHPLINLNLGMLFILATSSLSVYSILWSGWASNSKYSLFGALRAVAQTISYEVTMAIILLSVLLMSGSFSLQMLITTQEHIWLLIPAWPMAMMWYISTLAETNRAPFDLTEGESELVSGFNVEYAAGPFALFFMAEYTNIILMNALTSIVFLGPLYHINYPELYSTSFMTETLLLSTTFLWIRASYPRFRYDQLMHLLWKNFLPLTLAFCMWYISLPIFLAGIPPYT
T1 sequence (Q5XIH3 21-464 partner): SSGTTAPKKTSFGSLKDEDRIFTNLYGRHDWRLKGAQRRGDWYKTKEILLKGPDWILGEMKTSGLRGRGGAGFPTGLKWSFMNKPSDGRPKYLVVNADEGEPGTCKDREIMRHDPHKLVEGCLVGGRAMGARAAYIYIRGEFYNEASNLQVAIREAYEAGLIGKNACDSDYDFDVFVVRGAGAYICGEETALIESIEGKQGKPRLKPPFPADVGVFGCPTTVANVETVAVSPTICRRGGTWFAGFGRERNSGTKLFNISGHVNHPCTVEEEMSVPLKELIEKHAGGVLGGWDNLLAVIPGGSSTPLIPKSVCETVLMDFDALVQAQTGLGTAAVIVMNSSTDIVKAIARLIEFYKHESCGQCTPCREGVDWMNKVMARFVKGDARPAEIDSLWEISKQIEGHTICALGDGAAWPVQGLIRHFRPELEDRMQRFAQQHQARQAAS
Experiment: NADH oxidation at […] nm, rotenone-sensitive rate, mitochondria from dosed rats
Conditions: ex vivo after 400 ppm dietary rotenone for 1, 3 or 14 days, no in vitro dose, decylubiquinone, pH 7.2, KCN and antimycin present

In the case of `C=C(C)[C@H]1Cc2c(ccc3c2O[C@@H]2COc4cc(OC)c(OC)cc4[C@@H]2C3=O)O1` [rotenone], the “% decrease of complex I activity vs time-matched control” value is reported as 70–80%.

Reference: article PMC5379642, “Mechanistic Investigations of the Mitochondrial Complex I Inhibitor Rotenone in the Context of Pharmacological and Safety Evaluation” (Scientific Reports, 2017)
